Measured values from ChEMBL document CHEMBL1201862, “PubChem BioAssay data set” (2004).
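Growth conditions: 96-well plates. Treatment: test compound, 48 hours, 5 concentrations. Analysis: linear interpolation between bracketing concentrations; unreached endpoints set to highest concentration. At the GI50, growth is halved.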 Activity calls are given as the source filed them. Cut-off read from the data, not from the text of the source: active = GI50 up to about 1.1 µM and inactive = higher.

How the values were obtained:
Experiment in all cases: inhibition of tumour cell growth, NCI panel, 48 h
CAKI-1 = test system: CAKI-1
COLO 205 = test system: COLO 205
HCT-15 = test system: HCT-15
HL-60 = test system: HL-60
HT-29 = test system: HT-29
K562 = test system: K562
MOLT-4 = test system: MOLT-4
NCI-H23 = test system: NCI-H23
NCI-H522 = test system: NCI-H522
SF-539 = test system: SF-539
SN12C = test system: SN12C
TK-10 = test system: TK-10
UACC-257 = test system: UACC-257
UACC-62 = test system: UACC-62
ACHN = test system: ACHN
OVCAR-4 = test system: OVCAR-4
OVCAR-5 = test system: OVCAR-5
SF-268 = test system: SF-268

COC12OCCN(C)C1=CC(=O)C1=NNC(C)C12 (stereo unspecified)
GI50 (CAKI-1): > 100 µM (inactive) | GI50 (COLO 205): > 100 µM (inactive) | GI50 (HCT-15): > 100 µM | GI50 (HL-60): > 100 µM (inactive) | GI50 (HT-29): > 100 µM (inactive) | GI50 (K562): > 100 µM (inactive) | GI50 (MOLT-4): > 100 µM (inactive) | GI50 (NCI-H23): > 100 µM (inactive) | GI50 (NCI-H522): > 100 µM (inactive) | GI50 (SF-539): > 100 µM (inactive) | GI50 (SN12C): > 100 µM (inactive) | GI50 (TK-10): > 100 µM (inactive) | GI50 (UACC-257): > 100 µM (inactive) | GI50 (UACC-62): > 100 µM (inactive)

Cc1cc(C)nc(NS(=O)(=O)c2ccc(Nc3c4ccccc4nc4c(C(=O)Nc5ccc(S(=O)(=O)Nc6cc(C)on6)cc5)ccc(Cl)c34)cc2)n1
GI50 (ACHN): 36.2 µM (inactive) | GI50 (HCT-15): 28.9 µM | GI50 (HT-29): 23.4 µM (inactive) | GI50 (K562): 27.8 µM (inactive) | GI50 (MOLT-4): 19.5 µM (inactive) | GI50 (NCI-H23): 20.3 µM (inactive) | GI50 (NCI-H522): 21.5 µM (inactive) | GI50 (OVCAR-4): 28.6 µM (inactive) | GI50 (OVCAR-5): 18.7 µM (inactive) | GI50 (SF-268): 27.2 µM (inactive) | GI50 (SF-539): 21.5 µM (inactive) | GI50 (SN12C): 21.3 µM (inactive) | GI50 (TK-10): 76 µM (inactive) | GI50 (UACC-257): 28.9 µM (inactive) | GI50 (UACC-62): 26.4 µM (inactive)

C=CCOC(C)n1c(C)c(Br)c(=O)[nH]c1=O (stereo unspecified)
GI50 (ACHN): > 100 µM (inactive) | GI50 (CAKI-1): > 100 µM (inactive) | GI50 (COLO 205): > 100 µM (inactive) | GI50 (HCT-15): > 100 µM | GI50 (HL-60): > 100 µM (inactive) | GI50 (HT-29): > 100 µM (inactive) | GI50 (MOLT-4): > 100 µM (inactive) | GI50 (NCI-H23): > 100 µM (inactive) | GI50 (NCI-H522): > 100 µM (inactive) | GI50 (OVCAR-5): > 100 µM (inactive) | GI50 (SF-268): > 100 µM (inactive) | GI50 (SF-539): > 100 µM (inactive) | GI50 (SN12C): > 100 µM (inactive) | GI50 (TK-10): > 100 µM (inactive) | GI50 (UACC-257): > 100 µM (inactive) | GI50 (UACC-62): > 100 µM (inactive)

O=C(Nc1cc(Cl)c(Cl)cc1Cl)C(=O)C(C(=O)c1ccccc1)C1OC(=O)c2ccccc21 (stereo unspecified)
GI50 (ACHN): > 100 µM (inactive) | GI50 (CAKI-1): > 100 µM (inactive) | GI50 (COLO 205): > 100 µM (inactive) | GI50 (HCT-15): > 100 µM | GI50 (HL-60): > 100 µM (inactive) | GI50 (HT-29): > 100 µM (inactive) | GI50 (K562): > 100 µM (inactive) | GI50 (MOLT-4): > 100 µM (inactive) | GI50 (NCI-H23): > 100 µM (inactive) | GI50 (NCI-H522): > 100 µM (inactive) | GI50 (OVCAR-4): > 100 µM (inactive) | GI50 (OVCAR-5): > 100 µM (inactive) | GI50 (SF-268): > 100 µM (inactive) | GI50 (SN12C): > 100 µM (inactive) | GI50 (TK-10): > 100 µM (inactive) | GI50 (UACC-257): > 100 µM (inactive) | GI50 (UACC-62): > 100 µM (inactive)

COc1ccc(Nc2nc3cc(C(F)(F)F)ccc3nc2-c2ccccc2)cc1OC
GI50 (ACHN): 30.6 µM (inactive) | GI50 (CAKI-1): 31.5 µM (inactive) | GI50 (COLO 205): 29.3 µM (inactive) | GI50 (HCT-15): 64.4 µM | GI50 (HT-29): 46.7 µM (inactive) | GI50 (K562): 61 µM (inactive) | GI50 (MOLT-4): > 100 µM (inactive) | GI50 (NCI-H23): 25.7 µM (inactive) | GI50 (NCI-H522): 30 µM (inactive) | GI50 (OVCAR-4): 24 µM (inactive) | GI50 (OVCAR-5): > 100 µM (inactive) | GI50 (SF-268): 38 µM (inactive) | GI50 (SF-539): 39.5 µM (inactive) | GI50 (SN12C): 39.7 µM (inactive) | GI50 (TK-10): 15 µM (inactive) | GI50 (UACC-257): 27.2 µM (inactive) | GI50 (UACC-62): 27.4 µM (inactive)

N#CC1(CCCCl)CCCCC1
GI50 (ACHN): > 100 µM (inactive) | GI50 (COLO 205): > 100 µM (inactive) | GI50 (HCT-15): > 100 µM | GI50 (HL-60): > 100 µM (inactive) | GI50 (HT-29): > 100 µM (inactive) | GI50 (K562): > 10 µM (inactive) | GI50 (MOLT-4): > 100 µM (inactive) | GI50 (NCI-H23): > 100 µM (inactive) | GI50 (NCI-H522): > 100 µM (inactive) | GI50 (OVCAR-5): > 100 µM (inactive) | GI50 (SF-268): > 100 µM (inactive) | GI50 (SF-539): > 100 µM (inactive) | GI50 (SN12C): > 100 µM (inactive) | GI50 (TK-10): > 100 µM (inactive) | GI50 (UACC-257): > 100 µM (inactive) | GI50 (UACC-62): > 100 µM (inactive)

Clc1ccc(C2SCc3nc4ccccc4n32)c(Cl)c1 (stereo unspecified)
GI50 (ACHN): 15 µM (inactive) | GI50 (COLO 205): 17 µM (inactive) | GI50 (HCT-15): 15.6 µM | GI50 (HL-60): 8.22 µM (inactive) | GI50 (HT-29): 16 µM (inactive) | GI50 (K562): 11 µM (inactive) | GI50 (MOLT-4): 14.1 µM (inactive) | GI50 (NCI-H23): 11.3 µM (inactive) | GI50 (NCI-H522): 15.7 µM (inactive) | GI50 (OVCAR-5): 16.2 µM (inactive) | GI50 (SF-268): 16.5 µM (inactive) | GI50 (SF-539): 17.5 µM (inactive) | GI50 (SN12C): 14.6 µM (inactive) | GI50 (TK-10): 14.4 µM (inactive) | GI50 (UACC-257): 9.79 µM (inactive) | GI50 (UACC-62): 17.7 µM (inactive)
